From the supplement of paper PMC10307832

Key:
Test in all cases: relative viability (nuclei count vs DMSO), 5 days (fraction); higher = more cells survive
Zebularine + Dasatinib = compound: O=c1ncccn1[C@@H]1O[C@H](CO)[C@@H](O)[C@H]1O [Zebularine] + Cc1nc(Nc2ncc(C(=O)Nc3c(C)cccc3Cl)s2)cc(N2CCN(CCO)CC2)n1 [Dasatinib] (partner 0.075 µM)
Method in brief: (§1)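 Lung cancer cell lines were pin-tool dosed in 1536-well plates on the day after seeding, with either a lone drug or a fixed anchor-drug dose plus five library-drug doses (not always all listed) in √10 steps. Nuclei were counted on 4× images after 5 days. Relative viability is the ratio of treated-well to vehicle-well nuclei counts, with each value a median of duplicate plates.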

BI-D1870 + Bortezomib = compound: CC(C)CCN1c2nc(Nc3cc(F)c(O)c(F)c3)ncc2N(C)C(=O)C1C [BI-D1870] + CC(C)C[C@H](NC(=O)[C@H](Cc1ccccc1)NC(=O)c1cnccn1)B(O)O [Bortezomib] (partner 0.002 µM)
Method in brief: as §1

BI-D1870 + Decitabine = compound: CC(C)CCN1c2nc(Nc3cc(F)c(O)c(F)c3)ncc2N(C)C(=O)C1C [BI-D1870] + Nc1ncn([C@H]2C[C@H](O)[C@@H](CO)O2)c(=O)n1 [Decitabine] (partner 2 µM)
Method in brief: as §1

Zebularine + Luminespib = compound: O=c1ncccn1[C@@H]1O[C@H](CO)[C@@H](O)[C@H]1O [Zebularine] + CCNC(=O)c1noc(-c2cc(C(C)C)c(O)cc2O)c1-c1ccc(CN2CCOCC2)cc1 [Luminespib] (partner 0.01 µM)
Method in brief: as §1

Cell Line | relative viability (Zebularine + Dasatinib; first compound 1 µM) | relative viability (Zebularine + Dasatinib; first compound 3.162 µM) | relative viability (Zebularine + Dasatinib; first compound 10 µM) | relative viability (Zebularine + Dasatinib; first compound 31.62 µM) | relative viability (Zebularine + Dasatinib; first compound 100 µM) | relative viability (BI-D1870 + Bortezomib; first compound 0.04 µM) | relative viability (BI-D1870 + Bortezomib; first compound 0.1265 µM) | relative viability (BI-D1870 + Bortezomib; first compound 0.4 µM) | relative viability (BI-D1870 + Bortezomib; first compound 1.265 µM) | relative viability (BI-D1870 + Bortezomib; first compound 4 µM) | relative viability (BI-D1870 + Decitabine; first compound 0.04 µM) | relative viability (BI-D1870 + Decitabine; first compound 0.1265 µM) | relative viability (BI-D1870 + Decitabine; first compound 0.4 µM) | relative viability (BI-D1870 + Decitabine; first compound 1.265 µM) | relative viability (BI-D1870 + Decitabine; first compound 4 µM) | relative viability (Zebularine + Luminespib; first compound 1 µM) | relative viability (Zebularine + Luminespib; first compound 3.162 µM) | relative viability (Zebularine + Luminespib; first compound 10 µM) | relative viability (Zebularine + Luminespib; first compound 31.62 µM) | relative viability (Zebularine + Luminespib; first compound 100 µM)
201T | 0.635 | 0.586 | 0.508 | 0.6 | 0.548 | 1.14 | 1.06 | 1.07 | 1.1 | 1.06 | 0.886 | 0.849 | 0.847 | 0.848 | 0.879 | 1.09 | 1.1 | 0.894 | 1.04 | 0.724
A549 |  |  |  |  |  |  |  |  |  |  | 0.213 | 0.282 | 0.27 | 0.288 | 0.236 |  |  |  |  | 
A-427 | 0.841 | 0.664 | 0.434 | 0.535 | 0.2 | 1.08 | 1.01 | 0.936 | 1.08 | 0.968 | 0.573 | 0.499 | 0.561 | 0.685 | 0.638 | 1.01 | 0.856 | 0.53 | 0.383 | 0.261
ABC-1 | 0.637 | 0.352 | 0.454 | 0.435 | 0.351 | 0.306 | 0.353 | 0.232 | 0.298 | 0.244 | 0.885 | 1.05 | 1.15 | 0.942 | 1.03 | 0.476 |  | 0.458 | 0.317 | 0.364
BEN | 0.32 | 0.303 | 0.253 | 0.223 | 0.146 | 0.897 | 0.793 | 0.971 | 0.979 | 0.663 | 0.748 | 0.617 | 0.733 | 0.738 | 0.844 | 0.448 | 0.172 | 0.235 | 0.262 | 0.178
CAL-12T | 0.462 | 0.623 | 0.238 | 0.451 | 0.414 | 1.15 | 0.907 | 0.932 | 0.895 | 0.635 |  |  |  |  |  | 0.49 | 0.717 | 0.244 | 0.355 | 0.582
COR-L23 | 0.616 | 0.442 | 0.373 | 0.239 | 0.211 | 1.28 | 0.844 | 0.979 | 0.926 | 1.03 | 0.445 | 0.402 | 0.508 | 0.526 | 0.405 | 0.88 | 0.753 | 0.332 | 0.439 | 0.171
COR-L 105 | 0.33 | 0.294 | 0.33 | 0.367 | 0.369 | 0.835 | 0.831 | 0.88 | 0.774 | 0.713 | 0.668 | 0.516 | 0.668 | 0.733 | 0.656 | 0.844 | 0.839 | 0.508 | 1.06 | 0.652
Calu-6 |  |  |  |  |  | 0.972 | 0.914 | 1.05 | 0.845 | 0.361 |  |  |  |  |  |  |  |  |  | 
ChaGo-K-1 | 0.619 | 0.557 | 0.312 | 0.269 | 0.183 | 1.03 | 1.05 | 0.608 | 0.942 | 0.933 | 0.527 | 0.468 | 0.506 | 0.519 | 0.511 | 0.657 | 0.508 | 0.212 | 0.221 | 0.217
EBC-1 |  |  |  |  |  | 0.685 | 0.435 | 0.417 | 0.323 | 0.123 |  |  |  |  |  |  |  |  |  | 
EKVX | 0.577 | 0.498 |  | 0.575 | 0.573 | 1.14 | 1.1 | 0.938 | 1.15 | 1.05 | 0.328 | 0.309 | 0.374 | 0.436 | 0.39 | 0.863 | 0.847 | 0.867 | 0.807 | 0.653
EMC-BAC-2 | 0.349 | 0.367 | 0.268 | 0.318 | 0.311 | 1.18 | 0.964 | 1.02 | 1.09 | 1.05 | 1.02 | 0.985 | 1.01 | 1.27 | 1.02 | 1.27 | 1.1 | 0.842 | 1.38 | 1.35
EPLC-272H | 0.405 | 0.356 | 0.255 | 0.34 | 0.28 | 0.887 | 0.99 | 1.01 | 1.1 | 0.772 | 0.372 | 0.346 | 0.417 | 0.359 | 0.372 | 0.247 | 0.238 | 0.237 | 0.406 | 0.154
H3255 | 0.402 | 0.365 | 0.324 | 0.409 | 0.368 | 0.67 | 0.779 | 0.769 | 0.969 | 0.748 | 0.633 | 0.643 | 0.571 | 0.749 | 0.648 | 1.04 | 0.816 | 0.797 | 0.972 | 0.909
HARA | 0.219 |  |  | 0.35 | 0.274 | 1.03 | 1.03 | 1.22 | 1.18 | 0.943 | 0.513 | 0.527 | 0.568 | 0.683 | 0.684 | 0.86 |  |  | 0.833 | 0.445
